Reference: patent US12115178B2, “Acylated active agents and methods of their use for the treatment of autoimmune disorders” (Flagship Pioneering Innovations V, Inc., priority 2018, dated 2024)

Assay: Assay 1. Stability in Simulated Gastric Fluid (SGF)
Format: in vitro ADME
Conditions: SGF pH 1.6 with pepsin, 1 μM, 37° C.
Description: Assay 1. Stability of acylated active agents in Simulated Gastric Fluid (SGF). This assay was used to assess the stability of an acylated active agent in a stomach.
Medium was prepared by dissolving 2 g of sodium chloride in 0.6 L in ultrapure water (MilliQ®, Millipore Sigma, Darmstadt, Germany). The pH was adjusted to 1.6 with 1N hydrochloric acid, and the volume was then adjusted to 1 L with purified water.
60 mg FaSSIF powder (Biorelevant™, London, UK) were dissolved in 500 mL buffer (above). Pepsin was added (0.1 mg/mL) (Millipore Sigma, Darmstadt, Germany), and the solution was stirred. The resulting SGF media were used fresh for each experiment.
Test compounds were dissolved in DMSO stock to 1 mM. An aliquot of the DMSO stock solution was removed and diluted in the SGF Media in 15 mL falcon tubes to generate a total compound concentration of 1 μM. A 1 mL aliquot was immediately removed and diluted once with 1 volume of acetonitrile for T0 timepoint. The mixture was sealed and mixed at 37° C. in an incubator. Aliquots (1 mL) were removed at regular intervals and immediately quenched by the addition of 1 volume of acetonitrile. The resulting samples were analyzed by LC/MS to determine degradation rates in SGF.

Row | SMILES | Assay 1 (SGF) (% Remaining @ 1 hour)
1 | CCC(=O)OC[C@H]1O[C@@H](OC(=O)/C=C/c2c[nH]c3ccccc23)[C@H](OC(=O)CC)[C@@H](OC(=O)CC)[C@@H]1OC(=O)CC [Compound 95, (2S,3R,4S,5R,6R)-3,4,5-tris(propanoyloxy)-6-[(propanoyloxy)methyl]oxan-2-yl (2E)-3-(1H-indol-3-yl)prop-2-enoate] | B (25-75% of the tested compound remaining)
2 | CC(=O)Oc1cc(OC(C)=O)c2c(=O)c(OC(C)=O)c(-c3cc(OC(C)=O)c(OC(C)=O)c(OC(C)=O)c3)oc2c1 [Compound 11, [3,5-diacetoxy-4-oxo-2-(3,4,5-triacetoxyphenyl)chromen-7-yl] acetate] | C (>75% of the tested compound remaining)
3 | CC(=O)Oc1ccc(-c2oc3cc(OC(C)=O)cc(OC(C)=O)c3c(=O)c2OC(C)=O)cc1 [Compound 177, [4-(3,5,7-triacetoxy-4-oxo-chromen-2-yl)phenyl] acetate] | C (>75% of the tested compound remaining)
4 | CCC(=O)O[C@@H]1OC[C@H](OC(=O)CC)[C@H](OC(=O)CC)[C@H]1OC(=O)CC [Compound 128, (2S,3R,4S,5S)-3,4,5-tris(propanoyloxy)oxan-2-yl propanoate] | C (>75% of the tested compound remaining)
5 | CCC(=O)Oc1cc(OC(=O)CC)c2c(c1)O[C@H](c1cc(OC(=O)CC)c(OC(=O)CC)c(OC(=O)CC)c1)[C@H](OC(=O)c1cc(OC(=O)CC)c(OC(=O)CC)c(OC(=O)CC)c1)C2 [Compound 195, [(2R,3R)-5,7-di(propanoyloxy)-2-[3,4,5-tri(propanoyloxy)phenyl]chroman-3-yl] 3,4,5-tri(propanoyloxy)benzoate] | C (>75% of the tested compound remaining)
6 | CCC(=O)Oc1cc(OC(=O)CC)c2c(=O)c(OC(=O)CC)c(-c3ccc(OC(=O)CC)c(OC(=O)CC)c3)oc2c1 [Compound 174, [4-[4-oxo-3,5,7-tri(propanoyloxy)chromen-2-yl]-2-propanoyloxy-phenyl] propanoate] | C (>75% of the tested compound remaining)
7 | CC(=O)Oc1cc(OC(C)=O)c2c(=O)c(OC(C)=O)c(-c3ccc(OC(C)=O)c(OC(C)=O)c3)oc2c1 [Compound 4, [2-acetoxy-4-(3,5,7-triacetoxy-4-oxo-chromen-2-yl)phenyl] acetate] | C (>75% of the tested compound remaining)
8 | CCCC(=O)OC[C@H]1O[C@@H](Oc2ccccc2C(=O)O)[C@H](OC(=O)CCC)[C@@H](OC(=O)CCC)[C@@H]1OC(=O)CCC [Compound 28, 2-(((2S,3R,4S,5R,6R)-3,4,5-tris(butyryloxy)-6-((butyryloxy)methyl)tetrahydro-2H-pyran-2-yl)oxy)benzoic acid] | C (>75% of the tested compound remaining)
9 | CCC(=O)O[C@@H]1[C@@H](OC(=O)CC)[C@@H](OC(=O)CCc2c[nH]c3ccccc23)OC[C@H]1OC(=O)CC [Compound 75, (2R,3R,4S,5R)-3,4,5-tris(propanoyloxy)oxan-2-yl 3-(1H-indol-3-yl)propanoate] | C (>75% of the tested compound remaining)

Assay: Assay 2. Stability in Simulated Intestinal Fluid (SIF)
Format: in vitro ADME
Conditions: SIF pH 6.7 with pancreatin, 1 μM, 37° C.
Description: Assay 2. Stability of acylated active agents in Simulated Intestinal Fluid (SIF). This assay was used to assess the stability of an acylated active agent in a small intestine. Phosphate buffer was prepared by dissolving 0.42 g of sodium hydroxide pellets and 3.95 g of monobasic sodium phosphate monohydrate and 6.19 g of sodium chloride in ultrapure water (MilliQ®, Millipore Sigma, Darmstadt, Germany). The pH was adjusted to 6.7 using aq. HCl and aq. NaOH, as necessary, and the solution was diluted with ultrapure water to produce 1 L of the pH 6.7 buffer. 112 mg FaSSIF powder (Biorelevant™, London, UK) was dissolved in 50 mL of the pH 6.7 buffer. 2 to 3 mL of the resulting solution were then added to 500 mg pancreatin (Millipore Sigma, Darmstadt, Germany). The resulting mixture was agitated by finger tapping the vessel containing the mixture until milky suspension formed. At this time, the remainder of the 50 mL FaSSiF/pH 6.7 buffer solution was added. The resulting suspension was flipped upside down 10 times to produce SIF, which was used fresh. Test compounds were dissolved in DMSO stock to 1 mM. An aliquot of the DMSO stock solution was removed and diluted in the SIF media in 15 mL falcon tubes to produce a mixture with a tested compound concentration of 1 μM. A 1 mL aliquot was immediately removed and diluted once with 1 volume of acetonitrile for T0 timepoint. The mixture was sealed and agitated at 37° C. in an incubator. Aliquots (1 mL) were removed at regular intervals and immediately quenched by the addition of 1 volume of acetonitrile. The resulting samples were analyzed by LC/MS to determine degradation rates.

Row | SMILES | Assay 2 (SIF) (% @ Remaining 4 hours)
10 | CCCC(=O)Oc1ccc([C@@H]2CC(=O)c3c(OC(=O)CCC)cc(OC(=O)CCC)cc3O2)cc1 [Compound 175, (S)-2-(4-(butyryloxy)phenyl)-4-oxochromane-5,7-diyl dibutyrate] | A (<25% of the tested compound remaining)
11 | CCCC(=O)O[C@@H]1O[C@@H](C)[C@H](OC(=O)CCC)[C@@H](OC(=O)CCC)[C@H]1OC(=O)CCC [Compound 120, (2S,3R,4R,5S,6S)-3,4,5-tris(butanoyloxy)-6-methyloxan-2-yl butanoate] | A (<25% of the tested compound remaining)
12 | CCCC(=O)Nc1ccc(O[C@@H]2OC[C@@H](OC(=O)CCC)[C@H](OC(=O)CCC)[C@H]2OC(=O)CCC)c(C(=O)O)c1 [Compound 188, 5-butanamido-2-{[(2S,3R,4S,5R)-3,4,5-tris(butanoyloxy)oxan-2-yl]oxy}benzoic acid] | A (<25% of the tested compound remaining)
13 | CCCC(=O)OCC1(OC(=O)CCC)OC[C@@H](OC(=O)CCC)[C@H](OC(=O)CCC)[C@@H]1OC(=O)CCC (stereo partly drawn) [Compound 131, [(3S,4S,5R)-2,3,4,5-tetrakis(butanoyloxy)oxan-2-yl]methyl butanoate] | A (<25% of the tested compound remaining)
14 | CC(=O)Oc1ccc2c(c1)oc(=O)c1cc(OC(C)=O)c(OC(C)=O)cc12 [Compound 203, 6-oxo-6H-benzo[c]chromene-3,8,9-triyl triacetate] | B (25-75% of the tested compound remaining)
15 | CCCC(=O)O[C@@H]1[C@@H](OC(=O)CCC)[C@@H](Oc2ccc(N)cc2C(=O)O)OC[C@H]1OC(=O)CCC [Compound 184, 5-amino-2-[(2R,3R,4S,5R)-3,4,5-tri(butanoyloxy)tetrahydropyran-2-yl]oxy-benzoic acid] | B (25-75% of the tested compound remaining)
16 | CCCC(=O)O[C@@H]1[C@@H](OC(=O)CCC)[C@H](C)O[C@@H](O)[C@@H]1OC(=O)CCC [Compound 141, (2S,3S,4R,5R)-4,5-bis(butanoyloxy)-6-hydroxy-2-methyloxan-3-yl butanoate] | C (>75% of the tested compound remaining)
17 | C[C@@H]1O[C@H](OC(=O)Cc2c[nH]c3ccccc23)[C@H](OC(=O)Cc2c[nH]c3ccccc23)[C@H](OC(=O)Cc2c[nH]c3ccccc23)[C@H]1OC(=O)Cc1c[nH]c2ccccc12 [Compound 121, (2R,3R,4R,5S,6S)-3,4,5-tris({[2-(1H-indol-3-yl)acetyl]oxy})-6-methyloxan-2-yl 2-(1H-indol-3-yl)acetate] | A (<25% of the tested compound remaining)
18 | CC(=O)Oc1ccc([C@@H]2CC(=O)c3c(OC(C)=O)cc(OC(C)=O)cc3O2)cc1 [Compound 176, (S)-2-(4-acetoxyphenyl)-4-oxochromane-5,7-diyl diacetate] | A (<25% of the tested compound remaining)
19 | C[C@@H]1O[C@@H](OC(=O)Cc2c[nH]c3ccccc23)[C@H](OC(=O)Cc2c[nH]c3ccccc23)[C@H](OC(=O)Cc2c[nH]c3ccccc23)[C@H]1OC(=O)Cc1c[nH]c2ccccc12 [Compound 122, (2S,3R,4R,5S,6S)-3,4,5-tris({[2-(1H-indol-3-yl)acetyl]oxy})-6-methyloxan-2-yl 2-(1H-indol-3-yl)acetate] | A (<25% of the tested compound remaining)
20 | CCCC(=O)O[C@H]1OC[C@@H](OC(=O)CCC)[C@H](OC(=O)CCC)[C@H]1OC(=O)CCC [Compound 159, (2R,3R,4S,5R)-3,4,5-tris(butanoyloxy)oxan-2-yl butanoate] | C (>75% of the tested compound remaining)
21 | CC(=O)Oc1ccc(-c2oc3cc(OC(C)=O)cc(OC(C)=O)c3c(=O)c2OC(C)=O)cc1 [Compound 8, [4-(3,5,7-triacetoxy-4-oxo-chromen-2-yl)phenyl] acetate] | A (<25% of the tested compound remaining)
22 | CC(=O)Oc1cc(OC(C)=O)c2c(=O)c(OC(C)=O)c(-c3ccc(OC(C)=O)c(OC(C)=O)c3)oc2c1 [Compound 182, [2-acetoxy-4-(3,5,7-triacetoxy-4-oxo-chromen-2-yl)phenyl] acetate] | A (<25% of the tested compound remaining)
23 | CCCC(=O)O[C@H]1O[C@@H](C)[C@H](OC(=O)CCC)[C@@H](OC(=O)CCC)[C@H]1OC(=O)CCC [Compound 119, (2R,3R,4R,5S,6S)-3,4,5-tris(butanoyloxy)-6-methyloxan-2-yl butanoate] | A (<25% of the tested compound remaining)
24 | CCCC(=O)O[C@H]1[C@@H](Oc2ccccc2C(=O)O)OC[C@@H](OC(=O)CCC)[C@H]1OC(=O)CCC [Compound 42, 2-(((3R,4R,5R)-3,4,5-tris(butyryloxy)tetrahydro-2H-pyran-2-yl)oxy)benzoic acid] | C (>75% of the tested compound remaining)
25 | CCCC(=O)Oc1ccc(/N=N/c2ccc(OC(=O)CCC)c(C(=O)O)c2)cc1C(=O)O [Compound 17, 2-butanoyloxy-5-[(E)-(4-butanoyloxy-3-carboxy-phenyl)azo]benzoic acid] | A (<25% of the tested compound remaining)
